From patent publication US20240398772A1, “OXASPIRO DERIVATIVE, AND PREPARATION METHOD THEREFOR AND USE THEREOF” (SHUJING BIOPHARMA CO., LTD, priority 2021, published 2024)

Assays:
[1] = target: T1, MOR (Homo sapiens, UniProt P35372); experiment: Agonist test on MOR, cAMP level (CHO-K1/OP3 cells, cAMP assay kit); format: cell-based; conditions: for EC50: forskolin-stimulated cAMP, read-out: EC50 agonizing MOR receptor to affect cAMP level; for Emax: maximal effect of DAMGO is 100%, read-out: Emax agonizing MOR receptor to affect cAMP level
T1 construct: expressed in transfected cells; host or cells: CHO-K1/OP3 (name from the earlier reading)
Procedure: 5×stimulation buffer was diluted to 1× with ddH2O, an appropriate amount of 500 mM IBMX (generally, the IBMX stock solution was prepared to be 500 mM, namely 1000×) was added to enable the final concentration of the IBMX to be 0.5 mM, and the mixture was mixed well for later use (after the IBMX was added, that precipitation occurred was normal, and the precipitate was dissolved by well mixing). It must be prepared right before use.
1.3.1.2 IBMX was dissolved with DMSO to prepare a 500 mM stock solution, which was aliquoted into 20 μL/tube and cryopreserved at −80° C. to avoid repetition of freezing and thawing.
1.3.1.3 Forskolin was dissolved with DMSO to prepare a 10 mM stock solution, which was aliquoted into 20 μL/tube and cryopreserved at −20° C. for later use.
The CAMP standard substance in the kit returned to room temperature, and an equivalent amount of the experimental buffer was added according to the volume marked on the bottle label. The mixture was vortexed for mixing, aliquoted according to 50 μL/tube, and cryopreserved at −20° C. for later use.
5 mL ddH2O was added to a bottle of cAMP-d2 and a bottle of anti-cAMP-cryptate lyophilized powder, respectively, and the mixture was mixed well by gently turning the mixture upside down, aliquoted according to 125, 62.5, and 30 μL, and the like, and cryopreserved in the dark at −80° C.
1.3.2.1 Positive compound DAMGO and the test compound were serially diluted 4-fold to obtain 10 concentrations with Bravo using experimental buffer in a compound plate (Greiner-781280) at a starting concentration of 2 μM (from DMSO stock solution diluted with experimental buffer) and 20 μM (from DMSO stock solution diluted with experimental buffer), respectively.
1.3.2.2 Cells cryopreserved were thawed in a water bath at 37° C., the cell suspension was added to a centrifuge tube containing 10 mL of HBSS buffer, and the mixture was centrifuged at 750 rpm for 5 min. The supernatant was discarded, the pellet was resuspended in an appropriate amount of experimental buffer, and 20 μL of the pellet was counted using a cell counter. An appropriate amount of the cell suspension was diluted to 0.4×10^6 cells/mL, and 5 μL of the cell suspension was added to each well of a cell plate (the cell density was 2000 cells/well) and centrifuged at 1000 rpm for 1 min. 5 μL of the diluted compound was transferred to a cell plate (PerkinElmer-6008280) with Bravo, 5 μL of 2 μM DAMGO (the final concentration was 1 μM) was transferred to positive control wells, and an equal volume of experimental buffer was transferred to negative control wells, and the cell plate was centrifuged at 1000 rpm for 1 min. The cell plate was sealed and incubated at room temperature for 15 min. Forskolin was diluted to 0.2 mM with DMSO, 25.1 nL of which was transferred to a cell plate with Tecan-D300e, and the plate was centrifuged at 1000 rpm for 1 min, sealed, and incubated at room temperature for 45 min.
The final concentration of the initial point was 712 nM.
1.3.2.4 Preparation of detection reagent: an appropriate amount of a cAMP-d2 stock solution and an anti-cAMP-cryptate stock solution was diluted with a lysis buffer according to the ratio of 1:20, the two solutions were then mixed well by turning the solutions upside down according to the ratio of 1:1, and vortexing was prohibited. 10 μL of the prepared detection reagent was added to a cell plate and centrifuged at 1000 rpm for 1 min. The cell plate was incubated at room temperature for 1 h in the dark. After the cell plate was centrifuged at 1000 rpm for 1 min, the plate was read using Envision. Excitation light at 340 nm, emission light at 620 nm and 665 nm.
The formula for calculating the compound activation rate in the agonist test: […]

[2] = target: T2, MOR beta-arrestin (Homo sapiens, UniProt P35372); experiment: MOR beta-arrestin agonist test (PathHunter, U2OS/OPRM1 cell line); format: cell-based; conditions: Human Mu opioid β-arrestin U2OS/OPRM1 cell line; for Emax: maximal effect of DAMGO is 100%, read-out: Emax for activating beta-arrestin signaling pathway; for EC50: read-out: EC50 for activating beta-arrestin signaling pathway
T2 construct: expressed in transfected cells; host or cells: MOR beta-arrestin cell strain (U2OS/OPRM1 PathHunter per the earlier reading), kept under Hygromycin B and G418 selection
Procedure: • Cell complete medium: MEM+10% FBS+1% PS+250 μg/mL Hygromycin B+500 μg/mL G418 +1×GlutaMAX • Cell inoculation medium: MEM+10% FBS+1% PS • Experimental buffer: 1×DPBS+0.1% BSA • Detection reagent: Galacton Star:Emerald II:PathHunter cell assay buffer=1:5:19
• i) Compound samples were dissolved in DMSO to a stock concentration of 10 mM; • ii) A sample dilution sequence on a 384-well LDV plate was prepared, wherein the first concentration point of the sample was 10 mM (FAC=30 μM), and the sample was serially diluted 3.162-fold to obtain a total of 11 concentration points; • iii) The sample dilution sequence and HPE and ZPE were transferred to a compound plate (PE #6008590) using an Echo machine, with each well 90 nL transferred.
• i) The MOR beta-arrestin cell strain was cultured in a cell complete medium at 37° C. with 5% CO2 to a confluence of 70-90%; • ii) the cells were digested and resuspended in the cell inoculation medium, and 20 μL of the MOR beta-arrestin cell suspension was added to each well of an assay plate (Corning #3570) at 7500 cells/well and incubated in an incubator at 37° C. with 5% CO2 for 24 h; • iii) 30 μL of an experimental buffer was added to a compound plate (PE #6008590), and the plate was centrifuged at 1000 rpm for 5 min; • iv) after 24 h, the assay plate was taken out, the medium was removed from the plate, and then 20 μL of the compound was transferred from each corresponding well of the compound plate to the assay plate with Bravo; • v) the assay plate was centrifuged at 500 rpm for 30 s and then placed into an incubator for incubation at 37° C. with 5% CO2 for 90 min; • vi) 10 μL of the beta-arrestin detection reagent was added to each well of the assay plate; • vii) after 1 h of incubation at room temperature in the dark, the plate was read on Envision.
The experimental data of the percent activation rate and concentrations of 11 points were fitted using XLFit to a parameter nonlinear logic
Use formula to calculate the EC50 value of the compound, and the results are shown in Table 7 (maximal effect of DAMGO is 100%).

[3] = system: pain threshold of a mouse; experiment: Mouse thermal radiation tail-flick method; format: in vivo, ICR mice; conditions: for Maximum analgesic percentage (% MPE): ICR mice, intragastric 10 mg/kg, Mean ± SEM, n = 9-10
Procedure: • Intragastric administration at a dose of 10 mg/kg;
ICR mice (normal grade, weighed 25-35 g, purchased from Shanghai Slac Laboratory Animal Co., Ltd.) were first mounted in a special plastic cylinder, their tails were exposed and allowed to droop naturally, and the measurements were made after the animals were calm. The radiation heat source could be an 8.75 mm projection lamp (32 W, adjustable). A light beam with the diameter of about 4 mm was emitted after being focused by a lens, which irradiated the skin at the junction of the middle third and the lower third of the tail (the light source and the skin at the tail must be closely attached); an electronic timer connected with the light source in parallel was used to synchronously record the irradiation duration, that is, when the irradiation started, a stopwatch was automatically started at the same time. When the tail of the animal obviously evaded, the timing was automatically stopped. The measured time interval was the tail flick latency. Mice with tail flick latency of 2-6 seconds were screened to participate in a grouping administration experiment. […] After a dose of a drug was administered to the mice, the pain threshold of the mice was measured at different times.
After a dose of a drug was administered to the mice, the pain threshold of the mice was measured at 0.5 h, 1 h, 2 h, and 3 h (effect view of the analgesic effect is shown in FIG. 1). The formula for calculating the maximum analgesic percentage (% MPE) after administration was as follows: % MPE=(post-administration pain threshold−pre-administration pain threshold)/(15−pre-administration pain threshold)×100%.

T2 sequence (P35372 whole entry): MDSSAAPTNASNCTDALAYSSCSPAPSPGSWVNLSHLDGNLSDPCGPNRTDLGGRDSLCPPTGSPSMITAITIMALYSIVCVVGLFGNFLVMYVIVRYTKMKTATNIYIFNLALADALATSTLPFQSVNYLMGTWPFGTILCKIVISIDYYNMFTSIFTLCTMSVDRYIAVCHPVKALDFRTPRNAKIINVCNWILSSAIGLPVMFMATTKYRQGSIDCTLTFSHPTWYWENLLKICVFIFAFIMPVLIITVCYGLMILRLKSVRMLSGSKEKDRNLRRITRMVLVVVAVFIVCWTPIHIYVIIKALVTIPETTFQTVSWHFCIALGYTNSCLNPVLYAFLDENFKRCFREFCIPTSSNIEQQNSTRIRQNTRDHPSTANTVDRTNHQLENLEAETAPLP
T1 sequence (P35372 whole entry): as above

With Fc1ccc(C2(CCNC3Cc4ccccc4C3)CCOC3(CCOCC3)C2)nc1 (stereo not drawn) [Compound 8, N-(2-(4-(5-fluoropyridin-2-yl)-1,9-dioxaspiro[5.5]undecan-4-yl)ethyl)-2,3-dihydro-1H-inden-2-amine] the EC50 [1] was 8.62 nM, the Emax [1] was 72% and the Emax [2] was 2.1%. It also gave an EC50 [2] of 364 nM.

Fc1ccc([C@]2(CCNC3Cc4ccccc4C3)CCOC3(CCOCC3)C2)nc1 [Compound 8-1, (R)—N-(2-(4-(5-fluoropyridin-2-yl)-1,9-dioxaspiro[5.5]undecan-4-yl)ethyl)-2,3-dihydro-1H-inden-2-amine] was tested, and the “Maximum analgesic percentage (% MPE)” value ([3]; 0.5 h after administration) was 80.64 ± 9.27 %, the “Maximum analgesic percentage (% MPE)” value ([3]; 1 h after administration) was 85.69 ± 5.95 % and the “Maximum analgesic percentage (% MPE)” value ([3]; 2 h after administration) was 69.94 ± 10.43 %. The “Maximum analgesic percentage (% MPE)” value ([3]; 3 h after administration) was 87.16 ± 6.80 %, the “Maintenance of the analgesic effect compared with oxycodone” value ([3]; mouse tail flick, 0.5-3 h after administration) was “maintained for a longer period of time” and the “Drug effect compared with oxycodone” value ([3]; mouse tail flick, same dose (10 mg/kg intragastric)) was “better drug effect than oxycodone”. It also gave an EC50 [1] of 4.1 nM, an Emax [1] of 92.8% and an Emax [2] of 3%. The EC50 [2] was over 30000 nM.

With Fc1ccc(C2(CCNC3Cc4cccc(Br)c4C3)CCOC3(CCOCC3)C2)nc1 (stereo not drawn) [Compound 10, 4-bromo-N-(2-(4-(5-fluoropyridin-2-yl)-1,9-dioxaspiro[5.5]undecan-4-yl)ethyl)-2,3-dihydro-1H-inden-2-amine] the EC50 [1] was 2.79 nM, the Emax [1] was 80.9% and the Emax [2] was 4.5%. The EC50 [2] was 4800 nM.

Cc1c(Cl)cccc1CNCCC1(c2ccc(F)cn2)CCOC2(CCOCC2)C1 (stereo not drawn) [Compound 12, N-(3-chloro-2-methylbenzyl)-2-(4-(5-fluoropyridin-2-yl)-1,9-dioxaspiro[5.5]undecan-4-yl)ethan-1-amine] showed an EC50 [1] of 7.63 nM, an Emax [1] of 89.8% and an Emax [2] of 6.3%. It also gave an EC50 [2] of over 30000 nM.

Compound Fc1ccc([C@]2(CCNCc3cccc(Cl)c3Cl)CCOC3(CCOCC3)C2)nc1 [Compound 13-1, (R)—N-(2,3-dichlorobenzyl)-2-(4-(5-fluoropyridin-2-yl)-1,9-dioxaspiro[5.5]undecan-4-yl)ethan-1-amine] has an EC50 [1] of 18.7 nM, an Emax [1] of 78.6% and an Emax [2] of 4.2%. It also gave an EC50 [2] of over 30000 nM.

c1ccc(C2(CCNC3CCc4ccccc43)CCOC3(CCOCC3)C2)nc1 (stereo not drawn) [Compound 15, N-(2-(4-(pyridin-2-yl)-1,9-dioxaspiro[5.5]undecan-4-yl)ethyl)-2,3-dihydro-1H-inden-1-amine] gave an EC50 [1] of 30.7 nM, an Emax [1] of 96.9% and an Emax [2] of 7.2%. For the same compound, the EC50 [2] was 1780 nM.
